2 molecules from paper PMC4404410, “Crystal structure of X‐prolyl aminopeptidase fromCaenorhabditis elegans: A cytosolic enzyme with a di‐nuclear active site” (FEBS Open Bio, 2015) can be followed below.

The target in data set [1] is T1, C. elegans APP-1 (X-prolyl aminopeptidase, aminopeptidase P1) (Caenorhabditis elegans, UniProt O44750).
T1 construct: full length (residues 1-616), N-terminal His-tag kept, pET19b, E. coli BL21 Star (DE3); homodimer, monomer 71977 Da by MS; two Zn2+ per monomer in crystal
T1 sequence (O44750 1-616): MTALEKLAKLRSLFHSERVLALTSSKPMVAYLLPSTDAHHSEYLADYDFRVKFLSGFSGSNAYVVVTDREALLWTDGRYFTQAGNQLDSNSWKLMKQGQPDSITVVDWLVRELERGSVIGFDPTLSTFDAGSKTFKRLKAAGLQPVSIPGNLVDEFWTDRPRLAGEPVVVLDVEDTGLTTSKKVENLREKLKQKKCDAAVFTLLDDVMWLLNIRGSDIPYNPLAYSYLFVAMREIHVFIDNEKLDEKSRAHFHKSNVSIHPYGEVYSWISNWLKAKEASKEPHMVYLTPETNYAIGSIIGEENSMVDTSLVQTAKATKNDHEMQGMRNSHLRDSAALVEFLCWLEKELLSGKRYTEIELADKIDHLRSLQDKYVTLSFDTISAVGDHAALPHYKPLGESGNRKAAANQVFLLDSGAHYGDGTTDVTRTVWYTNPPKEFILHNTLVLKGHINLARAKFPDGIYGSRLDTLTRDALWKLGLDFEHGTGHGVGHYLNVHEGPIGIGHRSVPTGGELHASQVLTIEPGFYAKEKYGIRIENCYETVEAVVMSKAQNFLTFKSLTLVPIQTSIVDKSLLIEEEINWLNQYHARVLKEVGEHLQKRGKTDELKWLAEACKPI
Description: HPLC assay of bradykinin cleavage ([…] nm). The data set is classed as biochemical.

Data set [2] deals with the molecule itself. Description: AUC; sedimentation velocity; 0.3 mg/ml APP-1 dialysed against 10 mM Tris/HCl pH 7.5, 150 mM KCl; 40,000 rpm, 20 °C; Rayleigh interference and absorbance at 275 nm.

Where “and” joins values, the source holds several entries; their conditions need not be identical. Identical values can stand only once.

Regarding `C[C@H](NC(=O)[C@@H]1CCCN1C(=O)[C@@H]1CCCN1C(=O)[C@@H](O)[C@H](N)Cc1ccccc1)C(N)=O` [apstatin], in data set [1], the inhibition at 10 µM was found to be 92%.

B1: Caenorhabditis elegans aminopeptidase P1 (APP-1), recombinant, His-tagged (enzyme, C. elegans, UniProt O44750 1-616, looked up)
chain: MTALEKLAKLRSLFHSERVLALTSSKPMVAYLLPSTDAHHSEYLADYDFRVKFLSGFSGSNAYVVVTDREALLWTDGRYFTQAGNQLDSNSWKLMKQGQPDSITVVDWLVRELERGSVIGFDPTLSTFDAGSKTFKRLKAAGLQPVSIPGNLVDEFWTDRPRLAGEPVVVLDVEDTGLTTSKKVENLREKLKQKKCDAAVFTLLDDVMWLLNIRGSDIPYNPLAYSYLFVAMREIHVFIDNEKLDEKSRAHFHKSNVSIHPYGEVYSWISNWLKAKEASKEPHMVYLTPETNYAIGSIIGEENSMVDTSLVQTAKATKNDHEMQGMRNSHLRDSAALVEFLCWLEKELLSGKRYTEIELADKIDHLRSLQDKYVTLSFDTISAVGDHAALPHYKPLGESGNRKAAANQVFLLDSGAHYGDGTTDVTRTVWYTNPPKEFILHNTLVLKGHINLARAKFPDGIYGSRLDTLTRDALWKLGLDFEHGTGHGVGHYLNVHEGPIGIGHRSVPTGGELHASQVLTIEPGFYAKEKYGIRIENCYETVEAVVMSKAQNFLTFKSLTLVPIQTSIVDKSLLIEEEINWLNQYHARVLKEVGEHLQKRGKTDELKWLAEACKPI
notes: Aminopeptidase P1 (APP-1, X-prolyl aminopeptidase), C. elegans, cytosolic; cDNA amplified with primers from the start codon to the stop codon; residues 1-616 (N-terminal domain 1-163, middle domain 164-318, C-terminal domain 319-616); N-terminal His tag and linker come from pET19b and were not removed; Mass spectrometry fits the His-tagged protein after removal of the start methionine (calculated …)
Regarding B1, in data set [2], the “stoichiometry N” value was 2 and 4.
